Converted amounts (≈) assume the structure as drawn. Like-named read-outs stand apart in the source and are kept apart here.
Assays:
[1] = system: Candida albicans ATTC 90028; assay: Antifungal susceptibility testing, Candida albicans; type: cell-based; settings: for IC50: ATTC90028, Table 2, read-out: Ca IC50; for MFC: ATTC90028, Table 2, read-out: Ca MFC; for MIC: ATTC90028, Table 2, read-out: Ca MIC
Procedure: (§1) Using standard susceptibility tests, the compounds of the invention were determined to be active against MRSA, C. neoformans and several other bacteria, fungi and protozoa. More specifically, the antibacterial and antifungal testing was carried out in the following manner. Cryptococcus neoformans ATCC 90113 and MRSA were obtained from the American Type Culture Collection (Manassas. Va.). Several others including Candida albicans ATTC 90028, Aspergillus fumigatus ATCC 90906 and Mycobacterium intracellulare (M. intracellulare) ATCC 23086 were also procured. Susceptibility testing was performed using a modified version of the National Committee for Clinical Laboratory Standards method. M. intracellulare was tested using a modified method of Franzblau, et al., J. Clin. Microbiol., 1998, 36, 362-366. DMSO solutions of samples were serially diluted in saline, and transferred in duplicate to 96 well microplates. Microbial suspensions were diluted in the broth to afford desired colony forming units/mL according to the 0.5 McFarland Standard [C. Albicans: either Saboraud Dextrose broth (SDB) or RPMI 1640, C. neoformans: SDB, A fumigatus: either YM broth (for MICS) or RPMI-1640+5% Alamar Blue.] After adding microbial cultures to the sampled afforded a final volume of 200 μL and final test concentration starting with 20 μg/mL, plates were read prior to and after final incubation using either fluorescence at 544ex/590em (M intracellulare, A. fumigatus) using the Polarstar galaxy reader (Biotek Instruments, Vermont). Growth (saline only), solvent and blank (media only) controls were included on each test plate. Drug controls [Ciprofloxacin (ICN Biomedicals, Ohio) for bacteria and Amphotericin B (ICN Biomedicals, Ohio) for fungi] were included in each assay. Percent growth was calculated and plotted versus test concentration to afford IC50 (sample concentration that affords 50% inhibition or growth of the organism). The minimum inhibitory concentration (MIC) was determined by visually inspecting the plate, and is defined as the lowest test concentration that allows no detectable growth (for Almar Blue assays, no color change from blue to pink).

[2] = system: Aspergillus fumigatus ATCC 90906; assay: Antifungal susceptibility testing, Aspergillus fumigatus; type: cell-based; settings: for A fu IC50 / IC50: Aspergillus fumigatus; for IC50: ATCC90906, read-out: A fu IC50
Procedure: as §1

[3] = system: Cryptococcus neoformans ATCC 90113; assay: Antifungal susceptibility testing, Cryptococcus neoformans; type: cell-based; settings: for IC50: ATCC90113, Table 2, read-out: Cn IC50; for MFC: ATCC90113, Table 2, read-out: Cn MFC; for MIC: ATCC90113, Table 2, read-out: Cn MIC
Procedure: as §1

Vero Cells = assay: Cytotoxicity, Vero cells; type: cell-based
MRSA = assay: Antibacterial susceptibility testing, MRSA; type: cell-based, methicillin resistant Staphylococcus aureus
Procedure: as §1

[4] = Staphylococcus aureus, Table 2, read-out: MRSA IC50
[5] = Staphylococcus aureus, Table 2, read-out: MRSA MIC

A fu MFC [2] [µg/mL] | A fu MIC [2] [µg/mL] | IC50 (MRSA; [4]) [µg/mL] | MIC (MRSA; [5]) [µg/mL] | IC50 [1] [µg/mL] | MIC [1] [µg/mL] | IC50 ([2]; Table 2) [µg/mL] | IC50 [3] [µg/mL] | MIC [3] [µg/mL] | SMILES | Ca IC50 ([1]; Table 2) [µg/mL] | Ca MFC ([1]; Table 2) | Ca MIC ([1]; Table 2) [µg/mL] | A fu IC50 ([2]; Table 2) | Cn IC50 ([3]; Table 2) [µg/mL] | Cn MFC ([3]; Table 2) | Cn MIC ([3]; Table 2) [µg/mL] | TC50 Vero Cells (Vero Cells; Table 2) [µg/mL] | TC50 Vero Cells (Vero Cells; Table 3) [µg/mL] | MFC [1] [µg/mL] | MFC [3] [µg/mL] | also measured
5.0 | 1.3 | 0.45 | 0.63 | 0.8 | 1.3 | 0.5 | 0.45 | 0.63 | C[n+]1cc(N(CCCCCC2CCCCC2)c2ccsc2)cc2ccccc21 [EVK-II-091] |  |  |  |  |  |  |  | >10 |  | > 20 | 5 | 
3.1 | 1.6 | 0.3 | 0.78 | 0.2 | 0.39 | 0.95 | 0.35 | 0.78 | C[n+]1cc(N(CCCCCC2CCCCC2)c2ccc3ccccc3c2)cc2ccccc21 [EVK-III-001] |  |  |  |  |  |  |  | 9.0 |  | 3.1 | 1.6 | 

Further lines, the compound ahead of its results:

SMILES | A fu MFC [2] [µg/mL] | A fu MIC [2] [µg/mL] | IC50 (MRSA; [4]) [µg/mL] | MIC (MRSA; [5]) [µg/mL] | IC50 [1] [µg/mL] | MIC [1] [µg/mL] | IC50 ([2]; Table 2) [µg/mL] | IC50 [3] [µg/mL] | MIC [3] [µg/mL] | Ca IC50 ([1]; Table 2) [µg/mL] | Ca MFC ([1]; Table 2) | Ca MIC ([1]; Table 2) [µg/mL] | A fu IC50 ([2]; Table 2) | Cn IC50 ([3]; Table 2) [µg/mL] | Cn MFC ([3]; Table 2) | Cn MIC ([3]; Table 2) [µg/mL] | TC50 Vero Cells (Vero Cells; Table 2) [µg/mL] | TC50 Vero Cells (Vero Cells; Table 3) [µg/mL] | MFC [1] [µg/mL] | MFC [3] [µg/mL] | also measured
C[C@@H]1[C@H](O)[C@@H](C)/C=C/C=C/C=C/C=C/C=C/C=C/C=C/[C@H](O[C@@H]2O[C@H](C)[C@@H](O)[C@H](N)[C@@H]2O)C[C@@H]2O[C@](O)(C[C@@H](O)C[C@@H](O)[C@H](O)CC[C@@H](O)C[C@@H](O)CC(=O)O[C@H]1C)C[C@H](O)[C@H]2C(=O)O [Amph B, Amphotericin B, reference compound] | 2.5 | 2.5 |  |  |  |  |  |  |  | 0.25 | 1.3 µg/mL | 0.63 | 0.90 µg/mL | 0.85 | 2.5 µg/mL | 2.5 | 6.5 (≈ 7.03 µM) | 6.5 (≈ 7.03 µM) |  |  | Ca IC50 ([1]; Table 1): 0.25 µg/mL; Ca MFC ([1]; Table 1): 1.3 µg/mL; Ca MIC ([1]; Table 1): 0.63 µg/mL; Ca IC50 ([1]; Table 3): 0.25 µg/mL; Ca MFC ([1]; Table 3): 1.3 µg/mL; Ca MIC ([1]; Table 3): 0.63 µg/mL; A fu IC50 ([2]; Table 1): 0.90 µg/mL; A fu IC50 ([2]; Table 3): 0.90 µg/mL; Cn IC50 ([3]; Table 1): 0.85 µg/mL; Cn MFC ([3]; Table 1): 2.5 µg/mL; Cn MIC ([3]; Table 1): 2.5 µg/mL; Cn IC50 ([3]; Table 3): 0.85 µg/mL; Cn MFC ([3]; Table 3): 2.5 µg/mL; Cn MIC ([3]; Table 3): 2.5 µg/mL; TC50 Vero Cells (Vero Cells; Table 1): 6.5 µg/mL (≈ 7.03 µM)
O=C(O)c1cn(C2CC2)c2cc(N3CCNCC3)c(F)cc2c1=O [Cipro, Ciprofloxacin, reference compound] |  |  |  |  |  |  |  |  |  |  |  |  |  |  |  |  |  | >10 |  |  | IC50 (MRSA; Staphylococcus aureus, Table 3, read-out: MRSA IC50): 0.09 µg/mL (≈ 0.272 µM); MFC (MRSA; Staphylococcus aureus, Table 3, read-out: MRSA MFC): > 20 µg/mL; MIC (MRSA; Staphylococcus aureus, Table 3, read-out: MRSA MIC): 0.5 µg/mL (≈ 1.51 µM)
C[n+]1cccc(N(CCCCCC2CCCCC2)c2ccc3ccccc3c2)c1 [EVK-III-002] | 6.3 | 1.6 | 0.45 | 0.78 | 0.6 | 1.6 | 1 | 0.85 | 1.6 |  |  |  |  |  |  |  | 6.0 |  | 13 | 1.6 | 
Clc1ccc(Nc2cc3ccccc3[n+](CCCCCC3CCCCC3)c2)cc1.[I-] [JRE-2-83-1] |  |  |  |  |  |  |  |  |  | 2.0 | — ((-) = >20 μg/mL) | 25 | — ((-) = >20 μg/mL) | 1.0 | — ((-) = >20 μg/mL) | 1.6 | 12.5 |  |  |  | MRSA IC50 (MRSA; Table 2): 0.50 µg/mL; MRSA MFC (MRSA; Table 2): 1.6 µg/mL; MRSA MIC (MRSA; Table 2): 0.78 µg/mL

Source: patent US8288410B2, “3-substituted quinolinium and 7H-indolo[2,3-c]quinolinium salts as new antiinfectives” (Florida Agricultural and Mechanical University, priority 2008, dated 2012)
